Results reported in PMC4804240, “Crystal structure of the vicilin from Solanum melongena reveals existence of different anionic ligands in structurally similar pockets” (Scientific Reports, 2016).

What was measured:
[1] = target: T1, SM80.1 (Solanum virginianum, UniProt A0A158RFR1); test: X-ray crystal structure, […] Å; type: binding; conditions: crystals from PEG 3350, sodium malonate, 25°C
T1 construct: native protein from seeds (ammonium sulphate fraction, gel filtration); 45 kDa band; homotrimer; 392 residues in structure
T1 sequence (A0A158RFR1 1-392): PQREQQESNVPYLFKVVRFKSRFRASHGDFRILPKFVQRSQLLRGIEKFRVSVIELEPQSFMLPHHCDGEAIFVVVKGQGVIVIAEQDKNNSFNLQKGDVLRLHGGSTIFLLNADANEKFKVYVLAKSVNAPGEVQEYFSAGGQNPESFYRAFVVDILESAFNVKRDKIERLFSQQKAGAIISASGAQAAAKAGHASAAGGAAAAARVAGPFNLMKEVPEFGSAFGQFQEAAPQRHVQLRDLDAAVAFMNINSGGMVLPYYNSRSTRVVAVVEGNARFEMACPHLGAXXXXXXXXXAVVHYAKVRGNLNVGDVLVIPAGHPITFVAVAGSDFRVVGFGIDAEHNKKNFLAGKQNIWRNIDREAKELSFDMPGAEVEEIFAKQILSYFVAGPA

[2] = target: SM80.1, 7S vicilin from Solanum melongena (eggplant) seeds (Solanum melongena); test: crystal structure; R32 crystal form, 1.5 A; one monomer in the asymmetric unit, trimer formed around the threefold crystallographic axis; crystals grown in 10% (w/v) PEG 3350, 1.5 M-2 M sodium malonate, hanging drop, 25°C

`CC(=O)O` [ACT, acetate] was tested, and the “X-ray crystal structure, 1.5 Å” value ([1]; bound without being listed in crystallisation mix, C-terminal beta-barrel pocket (Tyr260, Asn262, Arg267, Lys346)) was “Acetate moiety was present in the corresponding pocket in the C-terminal domain”.

With `O=C1CC[C@@H](C(=O)O)N1` [PCA, pyroglutamate] the “X-ray crystal structure, 1.5 Å” value ([1]; co-purified endogenous ligand, N-terminal beta-barrel pocket (His65, Cys67)) was “The N-terminal domain has cyclic lactam of glutamate, called pyroglutamate”.

“SM80.1, 7S vicilin from Solanum melongena (eggplant) seeds (natural protein)” was tested, and the stoichiometry N [2] was 3.
